Experimental data reported in US12070447B2, “Parenteral liquid preparation comprising carbamate compound” (SK BIOPHARMACEUTICALS CO., LTD., priority 2016, dated 2024).
Values after ≈ are worked out from the molar mass of the structure shown. Where two headings read alike, the source gives them in different places.

Tests used:
[1] = Saturation solubility according to the concentration of cyclodextrin derivative; type: physicochemical; conditions: for solubility at 6 h: aqueous with cosolvent or surfactant or cyclodextrin; for solubility at 6 h / solubility: thermodynamic from solid, water for injection, room temperature; for solubility: water for injection without cyclodextrin, water, 0 % W/V cyclodextrin derivative (Comparative Example, no cyclodextrin)
Procedure: 2-Hydroxypropyl-β-cyclodextrin (trade name: Cavitron) and sulfobutyl ether-β-cyclodextrin sodium salt (trade name: Captisol) as cyclodextrin compounds were each dissolved in water for injection at various concentrations as shown in Table 1. To this was added an excess amount of carbamic acid (R)-1-(2-chlorophenyl)-2-tetrazol-2-yl)ethyl ester, and the mixture was stirred at room temperature for 6 hours. The mixture was then filtered through a membrane filter to remove insolubles, and the amount of carbamic acid (R)-1-(2-chlorophenyl)-2-tetrazol-2-yl)ethyl ester in the filtrate was measured by high performance liquid chromatography, by which the saturation solubility was calculated. The column used in this experiment was a 75×4.6 mm, 3.5 μm C18 column, and the mobile phase was a mixed solution of 20% by volume of acetonitrile and 80% by volume of 10 mM phosphate buffer (pH 3.0). The flow rate was 2.0 mL/min, and detection was performed at 215 nm.
As a comparative example, the saturation solubility of carbamic acid (R)-1-(2-chlorophenyl)-2-tetrazol-2-yl)ethyl ester to which no cyclodextrin compound had been added was measured at room temperature.
The calculated saturation solubility values are shown in Table 1, and the same results are shown graphically in FIG. 1.

[2] = Saturation solubility according to pH change; type: physicochemical; conditions: for solubility at 12 h: thermodynamic from solid
Procedure: The solubility of carbamic acid (R)-1-(2-chlorophenyl)-2-tetrazol-2-yl)ethyl ester in various aqueous (water) solvent conditions was measured: (1) purified water, (2) pH 1 hydrochloric acid solution, and (3) pH 3 to 8 phosphate buffer solution. Specifically, about 50 mg of carbamic acid (R)-1-(2-chlorophenyl)-2-tetrazol-2-yl)ethyl ester was placed in a suitable glass vial and 15 mL of solvent was added. The mixture was slowly stirred at room temperature for 12 hours on a rotary stirrer to reach equilibrium. Two samples for each aqueous solvent were transferred to a microtube, and centrifuged, and the pH was measured by taking the supernatant. After dilution with diluted solution for analysis, the concentration was analyzed using high performance liquid chromatography under the same conditions as in Experimental Example 1 above.

With `NC(=O)O[C@@H](Cn1ncnn1)c1ccccc1Cl` [carbamic acid (R)-1-(2-chlorophenyl)-2-tetrazol-2-yl)ethyl ester] the “Solubility when cyclodextrin compound was added, compared with comparative example without cyclodextrin” value ([1]; Cavitron or Captisol added, in words) was “significantly improved”, the solubility at 6 h ([1]; Captisol 10 % W/V) was 12.8 mg/mL (≈ 47.8 mM) and the solubility at 6 h ([1]; Captisol 15 % W/V) was 18 mg/mL (≈ 67.2 mM). The solubility at 6 h ([1]; Captisol 20 % W/V) was 24.5 mg/mL (≈ 91.5 mM), the solubility at 6 h ([1]; Captisol 30 % W/V) was 32.5 mg/mL (≈ 121 mM) and the solubility at 6 h ([1]; Captisol 40 % W/V) was 45.1 mg/mL (≈ 168 mM). The solubility at 6 h ([1]; Captisol (sulfobutyl ether-β-cyclodextrin sodium salt) 5 % W/V) was 6.7 mg/mL, the solubility at 6 h ([1]; Cavitron 10 % W/V) was 13.2 mg/mL (≈ 49.3 mM) and the solubility at 6 h ([1]; Cavitron 15 % W/V) was 19.8 mg/mL (≈ 74 mM). The solubility at 6 h ([1]; Cavitron 20 % W/V) was 27.9 mg/mL (≈ 104 mM), the solubility at 6 h ([1]; Cavitron 30 % W/V) was 38.6 mg/mL (≈ 144 mM) and the solubility at 6 h ([1]; Cavitron 40 % W/V) was 49.5 mg/mL (≈ 185 mM). For the same molecule, the solubility at 6 h ([1]; Cavitron (2-hydroxypropyl-β-cyclodextrin) 5 % W/V) was 5.5 mg/mL (≈ 20.5 mM), the solubility ([1]; Captisol column) was 1800 µg/mL (≈ 6.72 mM) and the solubility ([1]; Cavitron column) was 1800 µg/mL (≈ 6.72 mM). The solubility at 12 h ([2]; pH 1 hydrochloric acid solution, pH 1, simulated gastric fluid, pH 1 hydrochloric acid solution, room temperature, read-out: Concentration (saturation solubility), Mean) was 1950 µg/mL (≈ 7.28 mM), the solubility at 12 h ([2]; pH 1 hydrochloric acid solution, pH 1, simulated gastric fluid, pH 1 hydrochloric acid solution, room temperature, read-out: Concentration (saturation solubility), Test solution 1) was 1940 µg/mL (≈ 7.25 mM) and the solubility at 12 h ([2]; pH 1 hydrochloric acid solution, pH 1, simulated gastric fluid, pH 1 hydrochloric acid solution, room temperature, read-out: Concentration (saturation solubility), Test solution 2) was 1970 µg/mL (≈ 7.36 mM). For the same molecule, the “Effect of change in pH on solubility” value ([2]; pH 1 to 8 aqueous solvents, in words) was “not greatly affected by the change in pH”, the solubility at 12 h ([2]; pH 3.0 phosphate buffer solution, pH 3, aqueous buffer, pH 3.0 phosphate buffer solution, final pH 3.1, room temperature, read-out: Concentration (saturation solubility), Mean) was 1870 µg/mL (≈ 6.99 mM) and the solubility at 12 h ([2]; pH 3.0 phosphate buffer solution, pH 3, aqueous buffer, pH 3.0 phosphate buffer solution, final pH 3.1, room temperature, read-out: Concentration (saturation solubility), Test solution 1) was 1870 µg/mL (≈ 6.99 mM). It also gave a solubility at 12 h ([2]; pH 3.0 phosphate buffer solution, pH 3, aqueous buffer, pH 3.0 phosphate buffer solution, final pH 3.1, room temperature, read-out: Concentration (saturation solubility), Test solution 2) of 1860 µg/mL (≈ 6.95 mM), a solubility at 12 h ([2]; pH 5.0 phosphate buffer solution, pH 5, aqueous buffer, pH 5.0 phosphate buffer solution, final pH 5.0, room temperature, read-out: Concentration (saturation solubility), Mean) of 1910 µg/mL (≈ 7.14 mM) and a solubility at 12 h ([2]; pH 5.0 phosphate buffer solution, pH 5, aqueous buffer, pH 5.0 phosphate buffer solution, final pH 5.0, room temperature, read-out: Concentration (saturation solubility), Test solution 1) of 1910 µg/mL (≈ 7.14 mM). It also gave a solubility at 12 h ([2]; pH 5.0 phosphate buffer solution, pH 5, aqueous buffer, pH 5.0 phosphate buffer solution, final pH 5.0, room temperature, read-out: Concentration (saturation solubility), Test solution 2) of 1910 µg/mL (≈ 7.14 mM), a solubility at 12 h ([2]; pH 6.5 phosphate buffer solution, pH 6.5, aqueous buffer, pH 6.5 phosphate buffer solution, final pH 6.6, room temperature, read-out: Concentration (saturation solubility), Mean) of 1860 µg/mL (≈ 6.95 mM) and a solubility at 12 h ([2]; pH 6.5 phosphate buffer solution, pH 6.5, aqueous buffer, pH 6.5 phosphate buffer solution, final pH 6.6, room temperature, read-out: Concentration (saturation solubility), Test solution 1) of 1860 µg/mL (≈ 6.95 mM). It also gave a solubility at 12 h ([2]; pH 6.5 phosphate buffer solution, pH 6.5, aqueous buffer, pH 6.5 phosphate buffer solution, final pH 6.6, room temperature, read-out: Concentration (saturation solubility), Test solution 2) of 1860 µg/mL (≈ 6.95 mM), a solubility at 12 h ([2]; pH 8.0 phosphate buffer solution, pH 8, aqueous buffer, pH 8.0 phosphate buffer solution, final pH 8.0, room temperature, read-out: Concentration (saturation solubility), Mean) of 1810 µg/mL (≈ 6.76 mM) and a solubility at 12 h ([2]; pH 8.0 phosphate buffer solution, pH 8, aqueous buffer, pH 8.0 phosphate buffer solution, final pH 8.0, room temperature, read-out: Concentration (saturation solubility), Test solution 1) of 1800 µg/mL (≈ 6.72 mM). For the same molecule, the solubility at 12 h ([2]; pH 8.0 phosphate buffer solution, pH 8, aqueous buffer, pH 8.0 phosphate buffer solution, final pH 8.0, room temperature, read-out: Concentration (saturation solubility), Test solution 2) was 1820 µg/mL (≈ 6.8 mM), the solubility at 12 h ([2]; purified water, pH 6.2, water, Purified water, final pH 6.2, room temperature, read-out: Concentration (saturation solubility), Mean) was 1800 µg/mL (≈ 6.72 mM) and the solubility at 12 h ([2]; purified water, pH 6.2, water, Purified water, final pH 6.2, room temperature, read-out: Concentration (saturation solubility), Test solution 1) was 1800 µg/mL (≈ 6.72 mM). For the same molecule, the solubility at 12 h ([2]; purified water, pH 6.2, water, Purified water, final pH 6.2, room temperature, read-out: Concentration (saturation solubility), Test solution 2) was 1810 µg/mL (≈ 6.76 mM).
